From patent US9955691B2, “Macrocyclic picolinamides as fungicides” (DOW AGROSCIENCES LLC, priority 2014, dated 2018) come the findings set out here.

Assay [1] deals with Puccinia triticina. Kind of assay: Fungicidal activity: Wheat Brown Rust (PUCCRT). It counts as in vivo. To be noted: Low Volume (121.5 g/H). How it is done: (§1) Technical grades of materials were dissolved in acetone, which were then mixed with nine volumes of water containing 110 ppm Triton X-100. The fungicide solutions were applied onto wheat seedlings using an automated booth sprayer to run-off. All sprayed plants were allowed to air dry prior to further handling. All fungicides were evaluated using the aforementioned method for their activity vs. all target diseases, unless stated otherwise. Wheat leaf blotch and brown rust activity were also evaluated using track spray applications, in which case the fungicides were formulated as EC formulations, containing 0.1% Trycol 5941 in the spray solutions. Wheat plants (variety Yuma) were grown from seed in a greenhouse in 50% mineral soil/50% soil-less Metro mix until the first leaf was fully emerged, with 7-10 seedlings per pot. These plants were inoculated with an aqueous spore suspension of Septoria tritici either prior to or after fungicide treatments. After inoculation the plants were kept in 100% relative humidity (one day in a dark dew chamber followed by two to three days in a lighted dew chamber at 20° C.) to permit spores to germinate and infect the leaf. The plants were then transferred to a greenhouse set at 20° C. for disease to develop. When disease symptoms were fully expressed on the 1st leaves of untreated plants, infection levels were assessed on a scale of 0 to 100 percent disease severity. Percent disease control was calculated using the ratio of disease severity on treated plants relative to untreated plants. Evaluation of Fungicidal Activity: Wheat Brown Rust (Puccinia triticina; Synonym: Puccinia recondite f. Sp. Tritici; Bayer Code PUCCRT) Wheat plants (variety Yuma) were grown from seed in a greenhouse in 50% mineral soil/50% soil-less Metro mix until the first leaf was fully emerged, with 7-10 seedlings per pot. These plants were inoculated with an aqueous spore suspension of Puccinia triticina either prior to or after fungicide treatments. After inoculation the plants were kept in a dark dew room at 22° C. with 100% relative humidity overnight to permit spores to germinate and infect the leaf. The plants were then transferred to a greenhouse set at 24° C. for disease to develop. Fungicide formulation, application and disease assessment followed the procedures as described in the Example A.

Assay [2] deals with Mycosphaerella graminicola; Anamorph: Septoria tritici. The assay is described as follows: Fungicidal activity: Leaf Blotch of Wheat (SEPTTR). The class given is in vivo. To be noted: Zymoseptoria tritici, Low Volume (121.5 g/H), wheat leaf blotch. Here is the method:
as §1, with “Evaluation of Fungicidal Activity: Leaf Blotch of Wheat (Mycosphaerella graminicola; Anamorph: Septoria tritici; Bayer Code […]) Technical” for “Technical”, “plants.” for “plants. Evaluation of Fungicidal Activity: Wheat Brown Rust (Puccinia triticina; Synonym: Puccinia recondite f. Sp. Tritici; Bayer Code PUCCRT) Wheat plants (variety Yuma) were grown from seed in a greenhouse in 50% mineral soil/50% soil-less Metro mix until the first leaf was fully emerged, with 7-10 seedlings per pot. These plants were inoculated with an aqueous spore suspension of Puccinia triticina either prior to or after fungicide treatments. After inoculation the plants were kept in a dark dew room at 22° C. with 100% relative humidity overnight to permit spores to germinate and infect the leaf. The plants were then transferred to a greenhouse set at 24° C. for disease to develop. Fungicide formulation, application and disease assessment followed the procedures as described in the Example A.”

Where [3] appears, read: 24 h, 1 Day Protectant, read-out: PUCCRT 1 DP disease control.
Where [4] appears, read: 72 h, 3 Day Curative, read-out: PUCCRT 3 DC disease control.
The mark [5] stands for this setting: 24 h, 1 Day Protectant, read-out: SEPTTR 1 DP disease control.
Where [6] appears, read: 72 h, 3 Day Curative, read-out: SEPTTR 3 DC disease control.

Where two headings read alike, the source gives them in different places. Bounds are passed on as bounds.

As to `CCOCC(=O)OCOc1c(OC)ccnc1C(=O)N[C@H]1COC[C@H](Cc2ccccc2)[C@@H](CCc2ccccc2)[C@H](C)OC1=O` [compound 32], the pest or weed control at 121.5 g/ha in assay [1] (setting [3]), in assay [1] (setting [4]), in assay [2] (setting [5]) and in assay [2] (setting [6]) was more than 70% throughout.
In the case of `COc1ccnc(C(=O)N[C@H]2COC[C@H](CCC(C)C)[C@@H](CCc3ccccc3)[C@H](C)OC2=O)c1OC(C)=O` [compound 33], the pest or weed control at 121.5 g/ha in assay [1] (setting [3]), in assay [1] (setting [4]), in assay [2] (setting [5]) and in assay [2] (setting [6]) was more than 70% in each case.
On to `COc1ccnc(C(=O)N[C@H]2COC[C@H](CCC(C)C)[C@@H](CCc3ccccc3)[C@H](C)OC2=O)c1OCOC(C)=O` [compound 34], for which the pest or weed control at 121.5 g/ha in assay [1] (setting [3]), in assay [1] (setting [4]), in assay [2] (setting [5]) and in assay [2] (setting [6]) was more than 70% in each case.
`COc1ccnc(C(=O)N[C@H]2COC[C@H](CCC(C)C)[C@@H](CCc3ccccc3)[C@H](C)OC2=O)c1OCOC(=O)C(C)C` [compound 35]: the pest or weed control at 121.5 g/ha in assay [1] (setting [3]), in assay [1] (setting [4]), in assay [2] (setting [5]) and in assay [2] (setting [6]) was more than 70% in each case.
For the molecule `CCOCC(=O)OCOc1c(OC)ccnc1C(=O)N[C@H]1COC[C@H](CCC(C)C)[C@@H](CCc2ccccc2)[C@H](C)OC1=O` [compound 36], the pest or weed control at 121.5 g/ha in assay [1] (setting [3]) was more than 70%; in assay [1] (setting [4]), less than 70%; in assay [2] (setting [5]), more than 70%; in assay [2] (setting [6]) it was more than 70%.
Turning to `COc1ccnc(C(=O)N[C@H]2COC[C@H](Cc3ccccc3)[C@@H](C3CCCC3)[C@H](C)OC2=O)c1OC(C)=O` [compound 37], the pest or weed control at 121.5 g/ha in assay [1] (setting [3]), in assay [1] (setting [4]), in assay [2] (setting [5]) and in assay [2] (setting [6]) was more than 70% throughout.
For the molecule `COc1ccnc(C(=O)N[C@H]2COC[C@H](Cc3ccccc3)[C@@H](C3CCCC3)[C@H](C)OC2=O)c1OCOC(C)=O` [compound 38], the pest or weed control at 121.5 g/ha in assay [1] (setting [3]), in assay [1] (setting [4]), in assay [2] (setting [5]) and in assay [2] (setting [6]) was more than 70% throughout.
`COc1ccnc(C(=O)N[C@H]2COC[C@H](Cc3ccccc3)[C@@H](C3CCCC3)[C@H](C)OC2=O)c1OCOC(=O)C(C)C` [compound 39]: the pest or weed control at 121.5 g/ha in assay [1] (setting [3]), in assay [1] (setting [4]), in assay [2] (setting [5]) and in assay [2] (setting [6]) was more than 70% in each case.
In the case of `CCOCC(=O)OCOc1c(OC)ccnc1C(=O)N[C@H]1COC[C@H](Cc2ccccc2)[C@@H](C2CCCC2)[C@H](C)OC1=O` [compound 40], the pest or weed control at 121.5 g/ha in assay [1] (setting [3]), in assay [1] (setting [4]), in assay [2] (setting [5]) and in assay [2] (setting [6]) was more than 70% throughout.
Turning to `COc1ccnc(C(=O)N[C@H]2COC[C@H](CCCc3ccccc3)[C@@H](Cc3ccccc3)[C@H](C)OC2=O)c1OC(C)=O` [compound 41], the pest or weed control at 121.5 g/ha in assay [1] (setting [3]), in assay [1] (setting [4]), in assay [2] (setting [5]) and in assay [2] (setting [6]) was more than 70% in each case.
Regarding `COc1ccnc(C(=O)N[C@H]2COC[C@H](CCCc3ccccc3)[C@@H](Cc3ccccc3)[C@H](C)OC2=O)c1OCOC(C)=O` [compound 42], the pest or weed control at 121.5 g/ha in assay [1] (setting [3]) is more than 70%; in assay [1] (setting [4]) it was less than 70%; in assay [2] (setting [5]), more than 70%; in assay [2] (setting [6]), more than 70%.
For the molecule `COc1ccnc(C(=O)N[C@H]2COC[C@H](CCCc3ccccc3)[C@@H](Cc3ccccc3)[C@H](C)OC2=O)c1OCOC(=O)C(C)C` [compound 43], the pest or weed control at 121.5 g/ha is more than 70% in assay [1] (setting [3]), less than 70% in assay [1] (setting [4]), more than 70% in assay [2] (setting [5]) and more than 70% in assay [2] (setting [6]).
Take `COc1ccnc(C(=O)N[C@H]2COC[C@H](CCC(C)C)[C@@H](Cc3ccccc3)[C@H](C)OC2=O)c1OCOC(C)=O` [compound 44]: the pest or weed control at 121.5 g/ha in assay [1] (setting [3]) was more than 70%; in assay [1] (setting [4]), less than 70%; in assay [2] (setting [5]) it was more than 70%; in assay [2] (setting [6]) it was more than 70%.
`CCOCC(=O)OCOc1c(OC)ccnc1C(=O)N[C@H]1COC[C@H](CCC(C)C)[C@@H](Cc2ccccc2)[C@H](C)OC1=O` [compound 45]: the pest or weed control at 121.5 g/ha in assay [1] (setting [3]), in assay [1] (setting [4]), in assay [2] (setting [5]) and in assay [2] (setting [6]) was more than 70% throughout.
As to `COc1ccnc(C(=O)N[C@H]2COC[C@H](CCC(C)C)[C@@H](Cc3ccccc3)[C@H](C)OC2=O)c1OC(C)=O` [compound 46], the pest or weed control at 121.5 g/ha in assay [1] (setting [3]), in assay [1] (setting [4]), in assay [2] (setting [5]) and in assay [2] (setting [6]) was more than 70% throughout.
For `COc1ccnc(C(=O)N[C@H]2COC[C@H](Cc3ccc(Cl)cc3)[C@@H](Cc3ccccc3)[C@H](C)OC2=O)c1OCOC(C)=O` [compound 47], the pest or weed control at 121.5 g/ha in assay [1] (setting [3]), in assay [1] (setting [4]), in assay [2] (setting [5]) and in assay [2] (setting [6]) was more than 70% throughout.
For the molecule `COc1ccnc(C(=O)N[C@H]2COC[C@H](Cc3ccccc3)[C@@H](Cc3ccc(OC(F)(F)F)cc3)[C@H](C)OC2=O)c1OCOC(=O)C(C)C` [compound 48], the pest or weed control at 121.5 g/ha in assay [1] (setting [3]) is more than 70%; in assay [1] (setting [4]), less than 70%; in assay [2] (setting [5]) it was more than 70%; in assay [2] (setting [6]), more than 70%.
In the case of `COc1ccnc(C(=O)N[C@H]2COC[C@H](Cc3ccccc3)[C@@H](Cc3ccc(OC(F)(F)F)cc3)[C@H](C)OC2=O)c1OCOC(C)=O` [compound 49], the pest or weed control at 121.5 g/ha was more than 70% in assay [1] (setting [3]), less than 70% in assay [1] (setting [4]), more than 70% in assay [2] (setting [5]) and less than 70% in assay [2] (setting [6]).
Take `COc1ccnc(C(=O)N[C@H]2COC[C@H](Cc3ccccc3)[C@@H](Cc3ccc(OC(F)(F)F)cc3)[C@H](C)OC2=O)c1OC(C)=O` [compound 50]: the pest or weed control at 121.5 g/ha in assay [1] (setting [3]) is more than 70%; in assay [1] (setting [4]), less than 70%; in assay [2] (setting [5]), more than 70%; in assay [2] (setting [6]) it was less than 70%.
Take `CCOCC(=O)OCOc1c(OC)ccnc1C(=O)N[C@H]1COC[C@H](Cc2ccccc2)[C@@H](c2ccccc2)[C@H](C)OC1=O` [compound 51]: the pest or weed control at 121.5 g/ha in assay [1] (setting [3]) was more than 70%; in assay [1] (setting [4]) it was less than 70%; in assay [2] (setting [5]), more than 70%; in assay [2] (setting [6]), less than 70%.
In the case of `COc1ccnc(C(=O)N[C@H]2COC[C@H](Cc3ccccc3)[C@@H](c3ccccc3)[C@H](C)OC2=O)c1OCOC(C)=O` [compound 53], the pest or weed control at 121.5 g/ha in assay [1] (setting [3]), in assay [1] (setting [4]), in assay [2] (setting [5]) and in assay [2] (setting [6]) was more than 70% throughout.
